≈ marks a conversion by molar mass, not a printed value. Read-outs that look alike come from different tables or passages of the source.
What was measured:
Type in all cases: cell-based
[1] = test system: MRSA GER 1966/97 (Hanover IIIc); experiment: MIC agar dilution, MRSA strain 36; conditions: Staphylococcus aureus
Description: (§1) Molar equivalent concentrations were used to allow comparison between compounds of differing molecular mass. Due to weighing difficulties, any compound in solid form was melted in a water bath prior to dilution. To make ten-times strength concentrations, which takes into account agar dilution, 0.0352 mmol of each compound was weighed into plastic universal bottles and 4 mL of sterile distilled water (SDW) was added. To produce a homogenous emulsion the universals were vortexed; once achieved the emulsions were serial diluted by adding 2 mL to 2 mL of SDW.
(§2) For every 100 mL of Isosensitest agar (IST) (CM0471; Oxoid, Basingstoke, England), 3.1 g of the IST powder was added to 100 mL SDW (as per manufacturer's instructions) and sterilised for 15 minutes at 121° C. Once sterilised, the molten agar was cooled to 50° C. in a water-bath. Subsequently 4.8 g of CCEY powder (BC2160; Bioconnections, Wetherby, England), also known as Brazier's medium, was added to 100 mL SDW for every 100 mL of agar needed. This was then sterilised for 15 minutes at 121° C. Once sterilised the molten agar was cooled to 50° C. in a water-bath and 4 mL of egg-yolk emulsion (S2073; TCS Biosciences Ltd, Buckingham, United Kingdom) and 1 mL of lysed defibrinated horse blood (HB035; TCS Biosciences Ltd, Buckingham, United Kingdom) were also added for every 100 mL needed. Horse blood lysis is achieved by dilution to half concentration with SDW; when fully lysed the mixture will turn dark red in colour.
(§3) 18 mL agar was added to each universal and then poured into sterile Petri dishes. This step creates a 1/10 dilution resulting in agar plates of the required strength. Control plates for each set of strains were created by adding 18 mL of agar to 2 mL of SDW.
(§4) Suspensions of each bacterial species were prepared with a density equal to that of a 0.5 McFarland standard using a densitometer. All suspensions were made using sterile distilled water and fresh 18-20 hour cultures. As a 0.5 McFarland standard contains 1.5×10^8 CFU/mL and the multipoint inoculators applies 1 μL spots of liquid, each bacterial suspension was diluted 1/15 (20 μL suspension to 280 μL sterile distilled water).
(§5) Bacterial suspensions were prepared from fresh 18-24 hour cultures as previously described. 1 μL of each strain was inoculated onto all 100 agar plates containing a different chemical concentration and the 2 control plates. This was done using a multipoint inoculator which inoculates 20 strains per plate. All plates were incubated for 22 hours at 37° C. in aerobic conditions.
(§6) Each plate was examined for bacterial growth after 22 and 48 hours, with each being incubated in between examinations. A positive result was recorded as growth of ≧10 colonies. A negative result was recorded as growth of <10 colonies as this is equivalent to 99.9% inhibition. The lowest concentration of chemical that inhibited growth was recorded as the MIC. The results are recorded in Table IV below, where the numbers are quoted in mmol/L.
(§7) Given the positive performance of the ethoxylates of lauryl alcohol in reducing the MIC for a number of the micro-organisms tested, further MIC testing of Laureth-1 [C12E1] through to Laureth-8 [C12E8] was conducted on each of the following: • 10 strains of vancomycin-resistant enterococci (VRE)—listed in Table V below; and • 20 strains of methicillin-resistant Staphylococcus aureus (MRSA)—listed in Table VI.
(§8) The alkanol, alkanol derivatives, agar plates, and inocula were all prepared in the same way as described above.
(§9) The plates were examined in the same manner as described above and the results are recorded in Table VII below, where the numbers are quoted in mmol/L.

[2] = test system: MRSA GER 131/98 (Sger Iidc); experiment: MIC agar dilution, MRSA strain 35; conditions: Staphylococcus aureus
Description: as §1, §2, §3, §4, §5, §6, §7, §8, §9

Candida glabrata = experiment: MIC agar dilution, micro-organism 20 (3943); conditions: Nakaseomyces glabratus, Candida glabrata 3943, read-out: MIC
Outline: (§10)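 Agar dilution in Isosensitest/CCEY agar with egg yolk and lysed horse blood; compounds as aqueous emulsions (myristyl and lauryl alcohol with 1-methyl-2-pyrrolidone and Tween 20). 1 µL spots of 1/15-diluted 0.5 McFarland suspensions, 37 °C aerobic, read at 22 and 48 h; MIC (mmol/L) is lowest concentration giving <10 colonies.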

[3] = test system: Enterococcus casseliflavus (VRE) Clin waste; experiment: MIC agar dilution, VRE strain 23
Description: as §1, §2, §3, §4, §5, §6, §7, §8, §9

Enterococcus faecium = experiment: MIC agar dilution, micro-organism 16 (7171); conditions: Enterococcus faecium 7171, read-out: MIC
Outline: as §10

[4] = test system: Enterococcus faecalis (VRE) PHLS URINE 2000; experiment: MIC agar dilution, VRE strain 21
Description: as §1, §2, §3, §4, §5, §6, §7, §8, §9

[5] = test system: Enterococcus faecium (VRE) MB310; experiment: MIC agar dilution, VRE strain 29
Description: as §1, §2, §3, §4, §5, §6, §7, §8, §9

[6] = test system: Staphylococcus epidermidis; experiment: MIC agar dilution, micro-organism 14 (11047); conditions: Staphylococcus epidermidis 11047, read-out: MIC
Outline: as §10

Enterococcus faecalis = experiment: MIC agar dilution, micro-organism 17 (775); conditions: Enterococcus faecalis 775, read-out: MIC
Outline: as §10

MRSA EMRSA 15 1729/98 = experiment: MIC agar dilution, MRSA strain 42; conditions: Staphylococcus aureus
Description: as §1, §2, §3, §4, §5, §6, §7, §8, §9

MRSA NCTC 11939 = experiment: MIC agar dilution, MRSA strain 50; conditions: Staphylococcus aureus, MRSA strain 50 NCTC 11939
Description: as §1, §2, §3, §4, §5, §6, §7, §8, §9

MRSA FRA 920 = experiment: MIC agar dilution, MRSA strain 38; conditions: Staphylococcus aureus
Description: as §1, §2, §3, §4, §5, §6, §7, §8, §9

MRSA EMRSA 15 19972/98 = experiment: MIC agar dilution, MRSA strain 39; conditions: Staphylococcus aureus
Description: as §1, §2, §3, §4, §5, §6, §7, §8, §9

Compound	MIC ([1]; 22 hrs)	MIC ([1]; 48 hrs)	MIC ([2]; 22 hrs)	MIC ([2]; 48 hrs)	MIC (Candida glabrata; 22 h, 22 hrs)	MIC (Candida glabrata; 48 h, 48 hrs)	MIC ([3]; 22 hrs)	MIC ([3]; 48 hrs)	MIC (Enterococcus faecium; 22 hrs)	MIC (Enterococcus faecium; 48 hrs)	MIC ([4]; 22 hrs)	MIC ([4]; 48 hrs)	MIC ([5]; 22 hrs)	MIC ([5]; 48 hrs)	MIC ([6]; 22 hrs)	MIC ([6]; 48 hrs)	MIC (Enterococcus faecalis; 22 hrs)	MIC (Enterococcus faecalis; 48 hrs)	MIC (MRSA EMRSA 15 1729/98; 22 hrs)	MIC (MRSA EMRSA 15 1729/98; 48 hrs)	other results
CCCCCCCCCCCCOCCOCCOCCO [L3, Triethylene Glycol Monododecyl Ether]	55 µM (≈ 17.5 µg/mL)	55 µM (≈ 17.5 µg/mL)	110 µM (≈ 35 µg/mL)	110 µM (≈ 35 µg/mL)	110 µM (≈ 35 µg/mL)	110 µM (≈ 35 µg/mL)	220 µM (≈ 70.1 µg/mL)	220 µM (≈ 70.1 µg/mL)	110 µM (≈ 35 µg/mL)	110 µM (≈ 35 µg/mL)	220 µM (≈ 70.1 µg/mL)	220 µM (≈ 70.1 µg/mL)	440 µM (≈ 140 µg/mL)	440 µM (≈ 140 µg/mL)	≤ 50 µM	≤ 50 µM	110 µM (≈ 35 µg/mL)	110 µM (≈ 35 µg/mL)	110 µM (≈ 35 µg/mL)	110 µM (≈ 35 µg/mL)	MIC (MRSA NCTC 11939; 22 hrs): 55 µM (≈ 17.5 µg/mL); MIC (MRSA NCTC 11939; 48 hrs): 55 µM (≈ 17.5 µg/mL); MIC (MRSA FRA 920; 22 hrs): 55 µM (≈ 17.5 µg/mL); MIC (MRSA FRA 920; 48 hrs): 55 µM (≈ 17.5 µg/mL); MIC (MRSA EMRSA 15 19972/98; 22 hrs): 110 µM (≈ 35 µg/mL); MIC (MRSA EMRSA 15 19972/98; 48 hrs): 110 µM (≈ 35 µg/mL)
CCCCCCCCCCCCOCCOCCOCCOCCO [L4, Tetraethylene Glycol Monododecyl Ether]	55 µM (≈ 19.9 µg/mL)	55 µM (≈ 19.9 µg/mL)	110 µM (≈ 39.9 µg/mL)	110 µM (≈ 39.9 µg/mL)	110 µM (≈ 39.9 µg/mL)	110 µM (≈ 39.9 µg/mL)	110 µM (≈ 39.9 µg/mL)	110 µM (≈ 39.9 µg/mL)	220 µM (≈ 79.8 µg/mL)	220 µM (≈ 79.8 µg/mL)	110 µM (≈ 39.9 µg/mL)	110 µM (≈ 39.9 µg/mL)	110 µM (≈ 39.9 µg/mL)	110 µM (≈ 39.9 µg/mL)	110 µM (≈ 39.9 µg/mL)	110 µM (≈ 39.9 µg/mL)	110 µM (≈ 39.9 µg/mL)	110 µM (≈ 39.9 µg/mL)	55 µM (≈ 19.9 µg/mL)	55 µM (≈ 19.9 µg/mL)	MIC (MRSA NCTC 11939; 22 hrs): 55 µM (≈ 19.9 µg/mL); MIC (MRSA NCTC 11939; 48 hrs): 55 µM (≈ 19.9 µg/mL); MIC (MRSA FRA 920; 22 hrs): 55 µM (≈ 19.9 µg/mL); MIC (MRSA FRA 920; 48 hrs): 55 µM (≈ 19.9 µg/mL); MIC (MRSA EMRSA 15 19972/98; 22 hrs): 55 µM (≈ 19.9 µg/mL); MIC (MRSA EMRSA 15 19972/98; 48 hrs): 55 µM (≈ 19.9 µg/mL)

From patent US20130165368A1, “ANTIMICROBIAL COMPOUNDS” (priority 2010, published 2013)
